Measurements published in ChEMBL document CHEMBL4043183, “Elucidation of a carboxylate O-methyltransferase NcmP in nocamycin biosynthetic pathway” (2017).
≈ marks a conversion by molar mass, not a printed value.

Experiments:
Assay type in all cases: functional
[1] = tested on: Micrococcus luteus; assay: Antibacterial activity against Micrococcus luteus CCTCC AB2013120 by broth microdilution method
[2] = tested on: Bacillus subtilis; assay: Antibacterial activity against Bacillus subtilis CCTCC AB2013121 by broth microdilution method
[3] = tested on: Staphylococcus aureus; assay: Antibacterial activity against Staphylococcus aureus ATCC 29213 by broth microdilution method
[4] = tested on: Enterococcus faecalis; assay: Antibacterial activity against Enterococcus faecalis ATCC 29212 by broth microdilution method
[5] = tested on: Bacillus thuringiensis; assay: Antibacterial activity against Bacillus thuringiensis CCTCC AB2013119 by broth microdilution method

MIC [1] [µg/mL] | MIC [2] [µg/mL] | MIC [3] [µg/mL] | MIC [4] [µg/mL] | MIC [5] [µg/mL] | Compound
> 128 | > 128 | > 128 | > 128 | 32 (≈ 65.4 µM) | CC(/C=C/C(O)=C1/C(=O)CNC1=O)=C\[C@@H](C)[C@H]1O[C@@]23O[C@H](C(=O)C[C@]2(C)O[C@H](C)[C@@H]3C(=O)O)[C@@H]1C
16 (≈ 31.8 µM) | > 128 | 32 (≈ 63.5 µM) | 4 (≈ 7.94 µM) | 0.5 (≈ 0.993 µM) | COC(=O)[C@H]1[C@@H](C)O[C@@]2(C)CC(=O)[C@H]3O[C@@]12O[C@H]([C@H](C)/C=C(C)/C=C/C(O)=C1/C(=O)CNC1=O)[C@H]3C
